Results on four molecules are retold here after patent US10702577B2, “Combination therapies using cyclosporine and aromatic cationic peptides” (STEALTH BIOTHERAPEUTICS CORP, priority 2010, dated 2020).

Square brackets hold non-standard residues; d marks the D form. Ends that are not written are not given here. Peptide text beside a SMILES is read from it.

Series [1] deals with several mammalian cell types. The following applies: energy-independent manner; Zhao et al. 2003; cited from earlier work.
The test system of series [2] is transplanted tissue or organ; cyclosporine nephrotoxicity. Briefly: Peptide with cyclosporine in transplant patients: organ health and nephrotoxicity (Example 7). It counts as in vivo. The following applies: subjects who receive the peptide versus those who do not; predicted. The text has this:
To prevent organ or tissue rejection after transplant, patients often receive a regimen of the immunosuppressive drug cyclosporine. Cyclosporine levels are established and maintained in the subject at levels to effectively suppress the immune system. However, nephrotoxicity is a concern for these subjects, and the level of the drug in the subject's blood is monitored carefully. Cyclosporine doses are adjusted accordingly in order to not only prevent rejection, but also to deter these potentially damaging side effects. Typically, an adult transplant patient receives cyclosporine as follows: IV: 2 to 4 mg/kg/day IV infusion once a day over 4 to 6 hours, or 1 to 2 mg/kg IV infusion twice a day over 4 to 6 hours, or 2 to 4 mg/kg/day as a continuous IV infusion over 24 hours. Capsules: 8 to 12 mg/kg/day orally in 2 divided doses. Solution: 8 to 12 mg/kg orally once a day. […]
A therapeutically effective amount of an aromatic-cationic peptide or pharmaceutically acceptable salt thereof such as acetate or trifluoroacetate salt is administered to subjects prior to, during and/or after transplant as show in Table 13 above. Subjects are monitored for health and function of the transplanted tissue or organ, as well as the incidence and severity of nephrotoxicitity often seen with prolonged cyclosporine administration.

For series [3], the system named is mu-opioid receptor. The following applies: result in words; no data shown; cited from earlier work.

For the molecule 2′,6′-Dmt-D-Arg-Phe-Lys-NH2 [SS-02], the “penetration of the plasma membrane” value in series [1] is recorded as “readily penetrates the plasma membrane”. With `Cc1cc(O)cc(C)c1C[C@H](NC(=O)[C@H](N)CCCNC(=N)N)C(=O)N[C@@H](CCCCN)C(=O)N[C@@H](Cc1ccccc1)C(N)=O` [PEPTIDE, D-Arg-2′6′-Dmt-Lys-Phe-NH2] (HELM PEPTIDE1{[dR].[Cc1cc(O)cc(C)c1C[C@H](N[*:1])C(=O)[*:2]].K.F.[am]}$$$$V2.0), in series [2], the tolerated cyclosporine dosage result is given as “able to maintain a higher and/or more consistent cyclosporine dosage for longer periods of time”. As to F[dR]FK-NH2 [SS-20], the “mu-opioid receptor agonist activity” value in series [3] is on record as “does not have mu-opioid receptor agonist activity”. In the case of Tyr-D-Arg-Phe-Lys-NH2 [SS-01], the “mu-opioid receptor agonist activity” value in series [3] is “has mu-opioid receptor agonist activity”.
